Experimental findings from patent US20140273094A1, “METHODS OF ENHANCING PROTEIN QUALITY AND QUANTITY BY YEAST FED-BATCH FERMENTATION” (BRISTOL-MYERS SQUIBB COMPANY, priority 2013, published 2014) are described below.

The test concerns P. pastoris. The test can be described thus: Effect of hydroxyurea on cell growth and antibody productivity in fed-batch fermentation, Run 01MAY11. It is filed as cell-based, Pichia pastoris. The method, then:
The glucose and ethanol were measured by YSI 2700 (YSI Incorporated, Yellow Springs, Ohio), O2 and CO2 of the exhaust line were measured by Questor GP Process Mass Spectrometer (ABB Extrel, Pittsburgh, Pa.) and the RQ value was calculated using below Equation [1]. The wet cell weight (WCW) was measured by centrifuging 1 milliliter (mL) fermentation broth at 13,200 rpm for 10 minutes, weighing pellet, and calculated ratio of pellets weight (g) over volume (mL). The supernatant titer (g/L) was measured by the HPLC method and the whole broth (WB) titer was then calculated by below Equation [2].
WB_Titer=Supernatant_Titer*(1−WCW/1000)
The treatment cultures were operated the same way plus adding hydroxyurea 5 hours after feed start.

Regarding `NC(=O)NO` [Hydroxyurea], the “average whole broth titer” value (90 hours run time, three hydroxyurea treatment lots) came to 75 normalized units. For the same compound, the “WCW reached and maintained by hydroxyurea treatment lots” value (after peak cell density at 30-40 hours, control lots ~400 g/Kg) is given as ~450 g/kg.
